Values of other authors in publication PMC2074382 (British Journal of Cancer, 1996).
Structures can show the parent of a compound that is named as a salt.

Details: animals, intravenous route; cited from earlier work

Structure (SMILES): CC[C@@]1(O)C(=O)OCc2c1cc1n(c2=O)Cc2c-1nc1cc3c(cc1c2CN1CCN(C)CC1)OCCO3 [GI147211, [7 - (methylpiperazinomethylene) - 10,11 - ethylene-dioxy-20(S)] camptothecin dihydrochloride]
- main and dose-limiting toxicity: myelosuppression
